Activity calls are given as the source filed them. The rule behind the calls is not given here.

Data set [1] concerns Leucine-rich repeat serine/threonine-protein kinase 2 (Homo sapiens), Q5S007 [G2019S]. The data set is described as follows: Inhibition of LRRK2 G2019S mutant (unknown origin) using LRRKtide as substrate at 10 uM incubated for 60 mins in presence of ATP by ADP-Glo reagent based assay relative to control.
Data set [2] deals with T1, Leucine-rich repeat serine/threonine-protein kinase 2 (Homo sapiens, UniProt Q5S007). The data set is described as follows: Inhibition of wild type LRRK2 (unknown origin) using LRRKtide as substrate at 10 uM incubated for 60 mins in presence of ATP by ADP-Glo reagent based assay relative to control.
Data set [3] concerns the target T2, Leucine-rich repeat serine/threonine-protein kinase 2 (Homo sapiens, UniProt Q5S007, G2019S). Put plainly: Inhibition of LRRK2 G2019S mutant (unknown origin) using LRRKtide as substrate incubated for 60 mins in presence of ATP by ADP-Glo reagent based assay.
The target in data set [4] is T1, Leucine-rich repeat serine/threonine-protein kinase 2. Put plainly: Inhibition of wild type LRRK2 (unknown origin) using LRRKtide as substrate incubated for 60 mins in presence of ATP by ADP-Glo reagent based assay.
Data set [5] in a line: Toxicity in wild type Zebrafish AB larvae assessed as effect on survival rate at 12.5 to 100 uM administered from 3 days post fertilization and measured after 96 hrs. Also noted: species or system Danio rerio. The note with it: in vivo, dose 12.5-100 µM.
Data set [6] can be described thus: Toxicity in wild type Zebrafish AB larvae administered from 3 days post fertilization and measured after 96 hrs. The arrangement: species or system Danio rerio. As to conditions: in vivo.
Data set [7] concerns the target T1, Leucine-rich repeat serine/threonine-protein kinase 2. The data set is described as follows: Inhibition of 3xFlag-Puro-tagged wildtype human LRRK2 phosphorylation at Ser935 residue overexpressed in HEK293T cells incubated for 24 hrs by SDS-PAGE analysis. The format is cell-based.
The test system of data set [8] is Leucine-rich repeat serine/threonine-protein kinase 2 (Homo sapiens), Q5S007 [G2019S]. Put plainly: Inhibition of 3xFlag-Puro-tagged human LRRK2 G2019S mutant phosphorylation at Ser935 residue overexpressed in HEK293T cells at 10 uM incubated for 24 hrs by SDS-PAGE analysis relative to control. The format is cell-based.
Data set [9] is filed under the species Danio rerio. Put plainly: Neuroprotective activity against 6-OHDA-induced neurotoxicity in wild type Zebrafish AB larvae assessed as increase in travel distance at high velocity at 50 uM treated with compound from 3 days post fertilization and measured after 4 days. It is filed as functional, organism-based. As to conditions: time 4.0 day.
Data set [10] has as its target T1, Leucine-rich repeat serine/threonine-protein kinase 2. Put plainly: Inhibition of 3xFlag-Puro-tagged wildtype human LRRK2 phosphorylation at Ser935 residue overexpressed in HEK293T cells at 10 uM incubated for 24 hrs by SDS-PAGE analysis relative to control. It is filed as cell-based.
The species named for data set [11] is Danio rerio. Put plainly: Neuroprotective activity against 6-OHDA-induced neurotoxicity in wild type Zebrafish AB larvae assessed as increase in travel distance at high velocity treated with compound from 3 days post fertilization and measured after 4 days. The format is functional, organism-based. The note with it: dose 12.5-50 µM, time 4.0 day.
Data set [12] deals with T2, Leucine-rich repeat serine/threonine-protein kinase 2. Put plainly: (§1) Inhibition of 3xFlag-Puro-tagged human LRRK2 G2019S mutant phosphorylation at Ser935 residue overexpressed in HEK293T cells incubated for 24 hrs by SDS-PAGE analysis. The format is cell-based.
Data set [13] has as its system Leucine-rich repeat serine/threonine-protein kinase 2 (Homo sapiens), Q5S007 [G2019S]. Described as §1. The format is cell-based.
For data set [14], the species on record is Danio rerio. Put plainly: Neuroprotective activity against 6-OHDA-induced neurotoxicity in wild type Zebrafish AB larvae assessed as improvement in swimming behavior at 150 uM treated with compound from 3 days post fertilization and measured after 4 days. It is filed as functional, organism-based. The note with it: time 4.0 day.
For data set [15], the species on record is Danio rerio. The data set is described as follows: Neuroprotective activity against 6-OHDA-induced neurotoxicity in wild type Zebrafish AB larvae assessed as increase in total swimming distance at 150 uM treated with compound from 3 days post fertilization and measured after 4 days. As to conditions: time 4.0 day. The format is functional, organism-based.

For data set [16], the species on record is Danio rerio. The data set is described as follows: Neuroprotective activity against 6-OHDA-induced neurotoxicity in wild type Zebrafish larvae AB assessed as increase in travel distance at high velocity at 12.5 to 50 uM treated with compound from 3 days post fertilization and measured after 4 days. The format is functional, organism-based. As to conditions: dose 12.5-50 µM, time 4.0 day.

For data set [17], the species on record is Danio rerio. Put plainly: Neuroprotective activity against 6-OHDA-induced neurotoxicity in wild type Zebrafish AB larvae assessed as increase in travel distance at high velocity at 12.5 uM treated with compound from 3 days post fertilization and measured after 4 days. The format is functional, organism-based. The note with it: time 4.0 day.
Data set [18] is filed under the species Danio rerio. The data set is described as follows: Neuroprotective activity against 6-OHDA-induced neurotoxicity in wild type Zebrafish AB larvae assessed as increase of total movement distance at 12.5 uM treated with compound from 3 days post fertilization and measured after 4 days. It is filed as functional, organism-based. The note with it: time 4.0 day.

T1 sequence (Q5S007 whole entry): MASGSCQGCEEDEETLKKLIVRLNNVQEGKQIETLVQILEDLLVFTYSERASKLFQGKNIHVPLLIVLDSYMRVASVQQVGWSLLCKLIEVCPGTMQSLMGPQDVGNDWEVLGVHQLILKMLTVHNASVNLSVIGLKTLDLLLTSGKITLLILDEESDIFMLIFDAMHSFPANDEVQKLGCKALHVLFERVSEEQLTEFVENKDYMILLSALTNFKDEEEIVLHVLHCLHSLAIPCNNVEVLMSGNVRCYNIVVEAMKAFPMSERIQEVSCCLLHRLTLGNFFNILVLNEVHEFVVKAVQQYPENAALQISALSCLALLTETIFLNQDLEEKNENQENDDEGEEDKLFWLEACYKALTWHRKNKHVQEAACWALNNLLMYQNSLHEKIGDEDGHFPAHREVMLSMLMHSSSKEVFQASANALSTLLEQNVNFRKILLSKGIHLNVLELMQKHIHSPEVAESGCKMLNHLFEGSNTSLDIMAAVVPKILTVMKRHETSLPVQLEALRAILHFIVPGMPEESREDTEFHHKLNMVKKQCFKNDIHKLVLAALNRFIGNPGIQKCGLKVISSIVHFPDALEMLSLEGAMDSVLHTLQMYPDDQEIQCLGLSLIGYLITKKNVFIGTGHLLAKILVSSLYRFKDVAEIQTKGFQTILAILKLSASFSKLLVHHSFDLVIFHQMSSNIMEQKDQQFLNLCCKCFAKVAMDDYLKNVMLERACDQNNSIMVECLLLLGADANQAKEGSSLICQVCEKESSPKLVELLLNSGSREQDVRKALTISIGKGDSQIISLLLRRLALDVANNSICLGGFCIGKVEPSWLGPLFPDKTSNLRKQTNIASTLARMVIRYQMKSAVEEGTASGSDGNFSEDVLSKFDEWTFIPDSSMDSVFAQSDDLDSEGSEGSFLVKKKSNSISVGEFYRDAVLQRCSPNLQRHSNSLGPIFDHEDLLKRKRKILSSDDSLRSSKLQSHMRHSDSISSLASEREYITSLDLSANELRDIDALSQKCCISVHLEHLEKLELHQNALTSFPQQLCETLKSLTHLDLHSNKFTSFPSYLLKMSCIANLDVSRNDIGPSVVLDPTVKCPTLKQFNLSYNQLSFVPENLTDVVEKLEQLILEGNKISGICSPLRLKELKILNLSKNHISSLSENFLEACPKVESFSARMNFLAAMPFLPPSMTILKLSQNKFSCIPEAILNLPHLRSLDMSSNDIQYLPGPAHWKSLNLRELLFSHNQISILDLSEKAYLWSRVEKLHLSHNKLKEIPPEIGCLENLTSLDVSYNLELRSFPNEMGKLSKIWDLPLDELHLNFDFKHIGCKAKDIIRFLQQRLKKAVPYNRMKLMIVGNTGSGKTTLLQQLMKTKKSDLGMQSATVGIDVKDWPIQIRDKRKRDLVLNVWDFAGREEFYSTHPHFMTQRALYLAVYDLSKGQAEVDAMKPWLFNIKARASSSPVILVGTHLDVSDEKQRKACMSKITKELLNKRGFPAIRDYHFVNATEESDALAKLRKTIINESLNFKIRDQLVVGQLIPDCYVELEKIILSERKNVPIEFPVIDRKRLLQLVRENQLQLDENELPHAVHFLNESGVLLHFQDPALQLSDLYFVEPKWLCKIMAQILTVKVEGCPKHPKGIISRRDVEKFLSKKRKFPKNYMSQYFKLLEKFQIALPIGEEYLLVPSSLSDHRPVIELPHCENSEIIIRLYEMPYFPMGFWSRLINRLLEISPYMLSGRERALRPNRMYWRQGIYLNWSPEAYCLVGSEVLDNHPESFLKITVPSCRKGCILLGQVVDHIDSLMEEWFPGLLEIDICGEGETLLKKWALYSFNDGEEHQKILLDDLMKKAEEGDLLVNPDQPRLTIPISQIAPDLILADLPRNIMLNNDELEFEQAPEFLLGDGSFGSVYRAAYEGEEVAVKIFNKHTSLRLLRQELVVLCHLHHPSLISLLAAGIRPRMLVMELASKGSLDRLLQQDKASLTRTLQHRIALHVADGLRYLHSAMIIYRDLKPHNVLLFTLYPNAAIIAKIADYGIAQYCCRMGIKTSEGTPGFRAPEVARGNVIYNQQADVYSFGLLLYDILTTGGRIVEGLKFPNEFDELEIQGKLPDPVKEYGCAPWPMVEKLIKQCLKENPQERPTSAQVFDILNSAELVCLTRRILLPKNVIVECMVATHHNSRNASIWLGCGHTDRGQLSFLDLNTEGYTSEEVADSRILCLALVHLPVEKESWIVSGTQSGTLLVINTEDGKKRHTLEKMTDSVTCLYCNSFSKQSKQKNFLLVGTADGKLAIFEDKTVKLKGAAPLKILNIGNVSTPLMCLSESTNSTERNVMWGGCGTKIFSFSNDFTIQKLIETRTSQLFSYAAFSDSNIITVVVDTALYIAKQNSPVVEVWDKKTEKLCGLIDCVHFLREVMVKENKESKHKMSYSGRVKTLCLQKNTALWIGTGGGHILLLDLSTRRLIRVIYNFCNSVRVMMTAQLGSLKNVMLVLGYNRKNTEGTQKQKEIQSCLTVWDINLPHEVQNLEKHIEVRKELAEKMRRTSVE
Leucine-rich repeat serine/threonine-protein kinase 2 (Homo sapiens), Q5S007 [G2019S], sequence (Q5S007 whole entry G2019S): as the sequence (Q5S007 whole entry) above, with G2019S counted along it
T2 sequence (Q5S007 whole entry G2019S): as the sequence (Q5S007 whole entry) above, with G2019S counted along it

With `c1ccc2c(c1)ncn1nc(-c3cc(C4CC4)[nH]n3)nc21`, the inhibition in [1] and in data set [2] was above 50% in each case. Also, the results for the IC50 in data set [3] and in [4] were 5590 nM and 7150 nM, respectively.

Take `Cn1cccc1-c1cc(C(=O)N/N=C2/C(=O)Nc3ccccc32)[nH]n1`: the inhibition in data set [1] and in data set [2] was above 50% throughout. The results for the concentration for half-maximal inhibition (IC50) in [3] and in data set [4] were 3630 nM and 39400 nM, respectively.

`CC[C@](C)(Nc1ccnc(-c2c[nH]c3ncccc23)n1)C(=O)NCC(F)(F)F`: the figures for the Activity entry (in data set [5]; in the data set listed under Danio rerio [11]) were “Toxic” and “Dose-dependent-effect”, respectively. Besides, the LC50 at 96 h in data set [6] was above 100000 nM. Moreover, the inhibition in data set [1] is above 80%; in [7] it was “Dose-dependent-effect”; in data set [2], above 80%; in data set [8] it was above 60%; in [10] it was above 80%; in data set [13] it was “Dose-dependent-effect”. The half-maximal inhibitory concentration (IC50) in [7] is 1670 nM; in [3] it was 218 nM; in [4], 1340 nM; in data set [12], 337 nM. The outcome in the data set filed under Danio rerio [9] was Active.

On to `Fc1ccc(-c2n[nH]cc2/C=N\Nc2nc3ccccc3[nH]2)cc1`, for which the inhibition in [1] and in [2] was above 50% each time. For the same compound, the values for the IC50 in data set [3] and in data set [4] were 4920 nM and 3120 nM, respectively.

As for `O=C(Nc1n[nH]c2ccccc12)c1cc(-c2cccnc2)n[nH]1`, the inhibition is above 80% in data set [1]; “Dose-dependent-effect” in data set [7]; above 80% in data set [2]; above 60% in [8]; above 80% in data set [10]; “Dose-dependent-effect” in data set [13]. The half-maximal inhibitory concentration (IC50) is 1190 nM in data set [7], 556 nM in data set [3], 803 nM in data set [4] and 605 nM in [12].

Regarding `N[C@@H](Cc1ccc(O)c(O)c1)C(=O)O`, the result in the data set listed under Danio rerio [14] and in the data set listed under Danio rerio [15] was Active.

For the compound `CNC(=O)c1sc2ccc(NC(=O)c3n[nH]c4ccccc34)cc2c1OC`, the inhibition in data set [1] and in [2] was above 50% each time. In addition, the half-maximal inhibitory concentration (IC50) in [3] was 2090 nM; in data set [4] it was 50300 nM.

As for `c1cc(OCCN2CCCCC2)cc(-c2n[nH]c3ccc(-c4nnc[nH]4)cc23)c1`, the inhibition in data set [1] is above 80%; in data set [7] it was “Dose-dependent-effect”; in data set [2], above 80%; in data set [8], above 60%; in [10], above 80%; in data set [13] it was “Dose-dependent-effect”. In addition, in the data set filed under Danio rerio [16], the outcome was inactive.

For `Cl.c1cc(OCCN2CCCCC2)cc(-c2n[nH]c3ccc(-c4nc[nH]n4)cc23)c1`, the Activity result in [5] is listed as “Toxic”. Besides, the median lethal concentration (LC50) at 96 h in [6] was above 100000 nM. Besides, the half-inhibitory concentration (IC50) in data set [7] was found to be 27.1 nM; in data set [3] it was 22.4 nM; in [4], 9.6 nM; in [12] it was 49.1 nM.

Regarding `COc1cc(C(=O)N2CCC(N3CCN(C)CC3)CC2)ccc1Nc1ncc2c(n1)N(C)c1ccccc1C(=O)N2C`, the Activity result in [5] is “Toxic”. Moreover, the result in the data set filed under Danio rerio [17] and in the data set listed under Danio rerio [18] was Active. Moreover, the 50% lethal concentration (LC50) at 96 h in data set [6] is above 100000 nM. Moreover, the IC50 in data set [7] turned out to be 17 nM; in data set [4] it was 3.1 nM; in data set [12], 22.1 nM. The inhibition result in [7] and in [13] was “Dose-dependent-effect” throughout.

For the origin of these results see ChEMBL document CHEMBL6074630, “Discovery of potent LRRK2 inhibitors by ensemble virtual screening strategy and bioactivity evaluation” (Eur J Med Chem, 2024).
